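Assay format: 96-well plates, 48-hour exposure. GI50 marks 50% less growth.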 Active and inactive are the calls of the source. Rule as the data show it: active = GI50 up to about 1.1 µM and inactive = higher.
Columns and labels:
Test in all cases: DTP human tumour cell line panel, 48 h
DLD-1 = tested on: DLD-1
DMS-114 = tested on: DMS-114
DMS-273 = tested on: DMS-273
HOP-18 = tested on: HOP-18
LXFL 529 = tested on: LXFL 529
M19-MEL = tested on: M19-MEL
SNB-78 = tested on: SNB-78
XF498 = tested on: XF498
RXF 631 = tested on: RXF 631

Measured: GI50

CCOc1ccc(C(CN2CCOCC2)C(C)=O)cc1OC (stereo not drawn)
inactive: DLD-1 10.6 µM | DMS-114 15.7 µM | DMS-273 11.3 µM | HOP-18 16.2 µM | LXFL 529 4.46 µM | M19-MEL 18.9 µM | SNB-78 20.7 µM | XF498 25.3 µM

CCCCCCC(O)CC[C@H]1CCC[C@@H](C)N1 (stereo partly drawn)
inactive: DLD-1 > 100 µM | DMS-114 > 31.6 µM | DMS-273 > 100 µM | HOP-18 > 100 µM | LXFL 529 > 100 µM | M19-MEL > 31.6 µM | SNB-78 > 100 µM

CC(=O)Nc1ccc(C(=O)N2N=C(C)/C(=C\c3c(O)ccc4ccccc34)C2=O)cc1
inactive: DLD-1 30.4 µM | DMS-114 54.2 µM | DMS-273 > 100 µM | HOP-18 83 µM | M19-MEL 45.6 µM | SNB-78 > 100 µM | XF498 28.9 µM

O=S(=O)(N/N=C/c1ccc(/C=N/NS(=O)(=O)c2ccccc2)cc1)c1ccccc1
inactive: DMS-114 54.8 µM | DMS-273 46.8 µM | HOP-18 84.3 µM | M19-MEL 50.6 µM | RXF 631 36.4 µM | SNB-78 61.8 µM | XF498 68.9 µM

Cc1cccc(NC(=O)c2cc3cc(/N=N/c4ccccc4Cl)ccc3oc2=O)c1
inactive: DLD-1 26.4 µM | DMS-114 22.7 µM | DMS-273 26.9 µM | HOP-18 72.9 µM | LXFL 529 27.2 µM | M19-MEL 32.1 µM | RXF 631 25.1 µM | SNB-78 59.7 µM | XF498 24.2 µM

O=S1(=O)OCCOS(=O)(=O)C1Cc1ccccc1
inactive: DLD-1 43 µM | DMS-114 38.2 µM | DMS-273 45.4 µM | HOP-18 23.5 µM | M19-MEL 39.5 µM | SNB-78 > 100 µM | XF498 19.2 µM

Cc1cc(C)c(C2=NO[C@@H]3C(=O)N(c4ccc(Cc5ccc(N6C(=O)[C@H]7C(c8c(C)cc(C)cc8C)=NO[C@H]7C6=O)cc5)cc4)C(=O)[C@H]23)c(C)c1
inactive: DLD-1 > 100 µM | DMS-114 > 100 µM | DMS-273 > 100 µM | HOP-18 > 100 µM | LXFL 529 > 100 µM | M19-MEL > 100 µM | SNB-78 > 100 µM | XF498 > 100 µM

Cc1cc(C)n(-c2c(O)ccc(O)c2-n2nc(C)cc2C)n1
inactive: DLD-1 > 100 µM | DMS-114 > 100 µM | DMS-273 > 100 µM | LXFL 529 > 100 µM | M19-MEL 71.6 µM | RXF 631 > 100 µM | SNB-78 > 100 µM | XF498 > 100 µM

CN1CCCc2nc3ccccc3n2C1
inactive: DLD-1 > 100 µM | DMS-114 > 100 µM | DMS-273 > 100 µM | HOP-18 > 100 µM | LXFL 529 > 100 µM | M19-MEL > 100 µM | SNB-78 > 100 µM | XF498 > 100 µM

Cc1cccc(C)c1NC(=O)C(=O)C(C#N)c1ccccc1 (stereo not drawn)
inactive: DLD-1 > 100 µM | DMS-114 > 100 µM | DMS-273 > 100 µM | HOP-18 > 100 µM | LXFL 529 > 100 µM | M19-MEL > 100 µM | SNB-78 > 100 µM | XF498 > 100 µM

Cn1cc(NC(=O)c2cc(NC(=O)CCCCCCCCCCC(=O)Nc3cc(C(=O)Nc4cc(C(=O)NCCC(=N)N)n(C)c4)n(C)c3)cn2C)cc1C(=O)NCCC(=N)N
inactive: DLD-1 27.9 µM | DMS-273 28.2 µM | HOP-18 15.2 µM | LXFL 529 16.9 µM | SNB-78 46.7 µM | XF498 > 100 µM

CCOc1ccccc1N1C(=O)C(=O)C(c2nc3ccccc3s2)C(=O)C1=O
inactive: DLD-1 > 100 µM | DMS-114 > 100 µM | DMS-273 > 100 µM | HOP-18 8.22 µM | LXFL 529 35.5 µM | M19-MEL 69.5 µM | SNB-78 > 100 µM | XF498 > 100 µM

N#C/C(=C\c1ccccc1Br)C(=O)c1ccccc1
inactive: DMS-114 97.1 µM | DMS-273 26.8 µM | LXFL 529 12.3 µM | M19-MEL 33.4 µM | RXF 631 > 100 µM | SNB-78 6.67 µM | XF498 > 50.2 µM
